Measured values taken from patent US20020042079A1, “METHODS AND AGENTS FOR MEASURING AND CONTROLLING MULTIDRUG RESISTANCE” (priority 1994, published 2002).
Entries after “also recorded” stand apart in the source; their conditions may differ.

Assays:
MCF-7/ADR cells [1] = experiment: Cell viability assay of Adriamycin sensitivity (Hoechst 33258 DNA content); details: for effect on sensitivity of drug-resistant cells to Adriamycin: MCF-7/ADR (MCF-7adr) cells, agent co-incubated with adriamycin for 6 hours
Procedure: After 6 hours, the media was removed, the cells rinsed, and then fed with fresh media not containing drugs. […] Media was aspirated and the wells rinsed with Hanks Balanced Salt Solution (HBSS, phenol red free). The cells were sonicated in hypotonic media (0.1×HBSS) for 30 seconds. […] Calf thymus DNA was used for calibration.
Cell viability assays: The media was removed 60 hr. after plating the cells and replaced with fresh media supplemented with various concentrations of adriamycin (Calbiochem, CA) and monensin (solubilized in DMF 0.1%) (Sigma, St. Louis). After 6 hr the media was removed, the cells rinsed, and then fed with fresh media not containing drugs. […] Media was aspirated and the wells rinsed with Hanks Balanced Salt Solution (HBSS, phenol red free). The cells were sonicated in hypotonic media (0.1×HBSS) for 30 seconds. […] Calf thymus DNA was used for calibration.
Cell Viability Assays: Cell viability was assayed by plating cells at ˜1000 cells/well in 24 well plates (Falcon) in DME. […] The cells were fed daily for three days and then cell viability was quantified with two independent techniques: an assay of total DNA and an assay of volume of viable cells. […] Calf thymus DNA was used for calibration.
After three days cell viability was assayed.

[2] = lumenal pH of 6 and an external pH of 8; cited from earlier work
MCF-7/ADR cells [3] = experiment: Subcellular distribution of Adriamycin fluorescence (confocal microscopy); assay type: cell-based, human; details: for Adriamycin distribution after addition of agent: MCF-7/ADR, Monensin 5 μM, Bafilomycin A1 500 nM, concanomycin 100 nM, Tamoxifen 10 μM (50 μM in Example 3), verapamil 10 μM, cyclosporin 5 μM
Procedure: Adriamycin can be excited between 350 nm-550 nm and emits between 400 nm-700 nm.
Labeling of Cells with Adriamycin: Cells were loaded with Adriamycin (10 μM) added to the perfusion medium. […] For epi-fluorescence, the cells were excited with 450-490 nm filter and emission was monitored with a 510 nm longpass filter.

MCF-7/ADR cells [4] = experiment: Acridine orange labeling of acidic compartments (confocal microscopy); assay type: cell-based, human; details: for red-orange acridine orange fluorescence of cytoplasmic organelles after addition of agent: MCF-7/ADR, 30 minutes, Monensin 5 μM, Bafilomycin A1 500 nM, concanomycin 100 nM, Tamoxifen 5 or 10 μM, verapamil 10 μM, cyclosporin A 10 μM
Procedure: Confocal fluorescence imaging of intracellular pH and acidic compartments: Acridine orange (2 μg/ml media; 4 mg/ml stock in water) was added directly to the chambers and the cells were incubated with the dye at 37° C. for 30 minutes. Cells in the presence of acridine orange were then examined at room temperature with an Insight Bilateral Laser Scanning Confocal Microscope (Meridian Instruments, Okemos, Mich.). […] Optical sections of the fluorescent sample were recorded at 0.5 micron intervals. […] The acetoxymethylester derivative of SNAFL-calcein (15 μg/ml) (Molecular Probes, Eugene, Oreg.) (a radiometric fluorescent probe for pH) was added to both MCF-7 and MCF-7adr cells. The ester linked fluorescent probe enters the cell passively where the esters are hydrolyzed by esterases located in the cytoplasm and intracellular vesicles. The SNAFL-calcein is then ionically trapped within the cytoplasm and vesicular compartments. […] These images were then compared to standard curves that were obtained in the following manner. […] Cells treated with monensin were exposed to the drug (10 μg/ml of media) for 30 minutes at 37° C. prior to labeling with SNAFL-calcein as described above. All cells were examined at room temperature.
The green and red emissions were collected using two photomultiplier tubes. […] Green emission was next passed through a 530 nm/30 nm bandpass filter and collected by the on-axis photomultiplier tube. Red emission was passed through a 610 nm longpass filter and collected by the 90° side photomultiplier tube.
Optical sections of the fluorescent samples were recorded at 0.5 micron intervals with a 60×oil immersion objective.

[5] = system: isolated microsomes of MCF-7/ADR cells; experiment: In vitro acidification of total microsomal preparation (acridine orange quenching); details: for rate of dissipation of the pre-existing pH gradient: added 10 minutes after ATP, Bafilomycin A1 100 nM, compared with tamoxifen
Procedure: Acidification of Cellular Microsomes: The acidification of cellular microsomes was assayed spectrophotometrically. Two different approaches were used for assaying acidification: Acidification of the total microsomal preparation using quenching of acridine orange and acidification of the recycling endosomes by monitoring the fluorescence from a microsomal preparation from cells that had previously endocytosed FITC-transferrin.
The homogenate was centrifuged twice for 10 minutes at 3000 g to remove unbroken cells and nuclei. The supernatant was layered over 20 ml of 0.5 M sucrose (20 mM HERES (pH 7.4), 1 mM DTT, 1 mM EDTA, 1×protease inhibitor mix) and 1 ml of 2 M sucrose and centrifuged for one hour at 100,000 g (Beckman Ti60 Rotor). Microsomes are collected at the 0.5 M and 2 M interface.
Acidic vesicles accumulate acridine orange to high concentrations resulting in the self quenching of the dye. This accumulation causes depletion of the acridine orange from the extra-vesicular space, and a decrease of the overall fluorescence of the sample. […] The sample was allowed to equilibrate by stirring for 30 minutes at 25° C. After 5 minutes of recording to establish baseline, 1 mM Tris-ATP was added to begin acidification (100 mM stock, titrated to pH 7.4 with 1 M Tris-base before use).

MCF-7/ADR cells [6] = experiment: Organelle-specific pH measurements with targeted SNARF and FITC probes in living cells; assay type: cell-based, human; details: MCF-7/ADR cells; SNARF 70 kD dextran; Tamoxifen at 10 μM
Procedure: Organelle-specific pH measurements: The pH was measured in selective cellular compartments by targeting ratiometric pH probes to specific organelles. […] Using a Nikon epifluorescence microscope with a intensified CCD camera, the pH probe FITC was excited alternately at 450 nm and 490 nm and emission recorded with a 520/10 bandpass filter. […] In short, to calibrate the pH for the endosomal system, the chamber was perfused with 150 mM sodium buffers at pH of 5, 6 or 7 containing of monensin (20 μM) and nigericin (10 μM) for 5 minutes before recording the fluorescence. For the pH calibrations of cytosol and nucleoplasm, the cells were incubated in 140 mM potassium buffers at pH 6.0, 6.5, 7.0 and 7.5 containing nigericin (20 μM).
After endocytosis, the transferrin is transported through the endosomes and then recycled back to the surface without passage through the lysosomes.
pH in the lysosomes: The pH in the lysosomes was assayed both with light and electron microscopy. […] The pH was calibrated as described above. […] The cells were incubated one hour at room temperature, washed with several changes of PBS pH 7.4 containing 50 mM NH4Cl. […] The cells were embedded in LR White in gelatin capsules and baked at 60° C. for 24 hours in a vacuum oven, sectioned and incubated overnight at 4° C. with anti-DNP antibodies in 4% FBS, washed and incubated in gold (10 nm) labeled secondary antibodies for 2 hours. They were then stained and visualized under the electron microscope.
Cells were plated on polystyrene plates at 50% confluency. Twenty-four to thirty-six hours later, the medium was aspirated and the cells were covered with 50 μl of DME with SNARF-dextran (10 mg/ml). The cells were quickly scraped off the polystyrene and placed in pre-chilled tubes containing 1 ml DME without serum. The cells were harvested (100 g for 5 minutes), washed twice with pre-chilled DME, and plated on Lab-Tek chambers in DME with serum. The cells were allowed to recover for 24 hours prior to examination on a confocal microscope. The pH was calibrated from SNARF fluorescence as described above.
pH in the nucleus: The nucleoplasmic pH was probed by loading the cytosol with SNARF conjugated to a 10 kD dextran. This dextran is too large to cross cellular membranes, but can enter the nucleoplasm by diffusion across the nuclear pores. Confocal fluorescence microscopy was used to prepare optical sections through the cell allowing the fluorescence intensity of the nucleoplasm and cytoplasm to be quantified. The 10 kD SNARF-dextran was loaded into the cytosol and imaged using the same techniques for the 70 kD SNARF-dextrans (see above).

COc1cccc2c1C(=O)c1c(O)c3c(c(O)c1C2=O)C[C@@](O)(C(=O)CO)C[C@@H]3O[C@H]1C[C@H](N)[C@H](O)[C@H](C)O1 [Adriamycin]
cell death (MCF-7/ADR cells [1]; 1 μM Adriamycin, absence of Tamoxifen, 6 hours exposure, assayed after three days): less than 20%
accumulation in a liposome [2]: approximately 100 fold
time for Adriamycin accumulation to reach a steady-state distribution (MCF-7/ADR cells [3]; MCF-7 and MCF-7/ADR cells): approximately 60 minutes

CO/C1=C\C(C)=C\[C@@H](C)[C@@H](O)[C@@H](C)C/C(C)=C/C=C/[C@H](OC)[C@@H]([C@@H](C)[C@@H](O)[C@H](C)[C@@]2(O)C[C@@H](O)[C@H](C)[C@@H](C(C)C)O2)OC1=O [Bafilomycin A1]
red-orange acridine orange fluorescence of cytoplasmic organelles after addition of agent (MCF-7/ADR cells [4]): the punctate red labeling of acidic organelles was lost; also recorded: disappearance of punctate red-orange cytoplasmic fluorescence
Adriamycin distribution after addition of agent (MCF-7/ADR cells [3]): redistributed Adriamycin to the nucleoplasm; also recorded: substantially decreased in all cytoplasmic compartments and increased in the nucleoplasm
acidification of pre-treated microsomes ([5]; Tamoxifen 8 μM, Bafilomycin A1 10 nM, monensin concentration not given): blocked acidification
rate of dissipation of the pre-existing pH gradient [5]: dissipated the pH gradient at a much slower rate
acidification blocked ([5]; at one tenth of 100 nM): 95%

C[C@H]1CCC/C=C/[C@@H]2C[C@H](O)C[C@H]2[C@H](O)/C=C/C(=O)O1 [Brefeldin A]
effect on sensitivity of drug-resistant cells to Adriamycin (MCF-7/ADR cells [1]): did not affect drug sensitivity

CO[C@@H]1C[C@@H](C[C@H]2CC[C@H](C)[C@H]([C@@H](C)C(=O)O)O2)O[C@]2(O[C@](C)([C@H]3CC[C@@](C)([C@@H]4O[C@@H]([C@H]5O[C@@](O)(CO)[C@H](C)C[C@@H]5C)C[C@@H]4C)O3)C[C@H]2C)[C@@H]1C [Nigericin]
effect on sensitivity of drug-resistant cells to Adriamycin (MCF-7/ADR cells [1]): functioned in a similar manner
acridine orange staining of acidic vesicles after treatment (MCF-7/ADR cells [4]; MCF-7adr (Examples 2, 3), nigericin 7.5 μM, tamoxifen 50 μM): eliminated fluorescent staining of both cytoplasmic vesicles and vesicles within the pericentriolar region; also recorded: immediate loss of orange/red fluorescence
rate of dissipation of the pre-existing pH gradient [5]: significantly faster than tamoxifen

N=C(N)NC(=O)c1nc(Cl)c(N)nc1N [amiloride]
effect on sensitivity of drug-resistant cells to Adriamycin (MCF-7/ADR cells [1]): functioned in a similar manner

COc1ccc(CCN(C)CCCC(C#N)(c2ccc(OC)c(OC)c2)C(C)C)cc1OC (stereo not shown) [verapamil]
red-orange acridine orange fluorescence of cytoplasmic organelles after addition of agent (MCF-7/ADR cells [4]): loss of the red-orange cytoplasmic fluorescence
Adriamycin distribution after addition of agent (MCF-7/ADR cells [3]): shifted Adriamycin from punctate cytoplasmic organelles to a diffuse cytoplasmic and nucleoplasmic distribution
shift of cytosolic pH, more alkaline (MCF-7/ADR cells [6]): no measurable effect on cytosolic pH
